In ChEMBL document CHEMBL5614382, “Discovery of a new 1-(phenylsulfonyl)-1H-indole derivative targeting the EphA2 receptor with antiproliferative activity on U251 glioblastoma cell line” (Eur J Med Chem, 2024):
The source made the active and inactive calls. No cut-off for these calls is given here.

Key:
[1] = molecular target: T1, Ephrin type-A receptor 2 (Mus musculus, UniProt Q03145); test: Displacement of biotinylated Fc-tagged ephrin-A1 from C/N-terminal 6-His tagged mouse recombinant EphA2 (Ala22 to Ala535 residues) preincubated for 1 hr followed by ephrin-A1-Fc addition and measured after 4 to 5 hrs by ELISA assay
T1 sequence (Q03145 whole entry): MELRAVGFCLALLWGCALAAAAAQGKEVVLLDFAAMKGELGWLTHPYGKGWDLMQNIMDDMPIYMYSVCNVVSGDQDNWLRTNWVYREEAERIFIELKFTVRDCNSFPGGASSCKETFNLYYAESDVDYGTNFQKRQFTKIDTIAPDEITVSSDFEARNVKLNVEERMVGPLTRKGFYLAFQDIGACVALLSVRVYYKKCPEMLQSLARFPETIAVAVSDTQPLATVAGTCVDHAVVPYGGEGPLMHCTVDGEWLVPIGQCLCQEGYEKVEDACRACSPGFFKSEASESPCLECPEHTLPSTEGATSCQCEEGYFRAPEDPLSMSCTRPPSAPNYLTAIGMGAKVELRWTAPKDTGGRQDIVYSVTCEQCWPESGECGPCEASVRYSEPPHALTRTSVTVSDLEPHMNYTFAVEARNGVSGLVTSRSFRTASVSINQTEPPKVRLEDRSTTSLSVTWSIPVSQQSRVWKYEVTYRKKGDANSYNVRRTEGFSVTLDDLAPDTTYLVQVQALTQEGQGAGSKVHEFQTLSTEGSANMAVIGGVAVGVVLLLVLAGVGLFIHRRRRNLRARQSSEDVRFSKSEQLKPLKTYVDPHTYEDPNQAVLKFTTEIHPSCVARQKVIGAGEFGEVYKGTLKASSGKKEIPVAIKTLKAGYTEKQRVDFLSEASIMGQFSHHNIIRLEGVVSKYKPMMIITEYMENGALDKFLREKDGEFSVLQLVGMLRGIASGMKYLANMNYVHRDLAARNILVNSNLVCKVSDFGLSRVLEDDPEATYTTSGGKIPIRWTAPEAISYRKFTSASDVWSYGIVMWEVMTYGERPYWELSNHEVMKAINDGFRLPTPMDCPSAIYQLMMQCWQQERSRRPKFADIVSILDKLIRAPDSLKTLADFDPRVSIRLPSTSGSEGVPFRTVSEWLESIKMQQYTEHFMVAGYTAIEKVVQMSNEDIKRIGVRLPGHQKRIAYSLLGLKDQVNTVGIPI

[2] = molecular target: T2, Ephrin type-A receptor 3 (Mus musculus, UniProt P29319); test: Displacement of biotinylated Fc-tagged ephrin-A1 from recombinant N/C-terminal 6-his tagged mouse EphA3 (Glu21 to His541 residues) preincubated for 1 hr followed by ephrin-A1-Fc addition and measured after 4 to 5 hrs by ELISA assay
T2 sequence (P29319 whole entry): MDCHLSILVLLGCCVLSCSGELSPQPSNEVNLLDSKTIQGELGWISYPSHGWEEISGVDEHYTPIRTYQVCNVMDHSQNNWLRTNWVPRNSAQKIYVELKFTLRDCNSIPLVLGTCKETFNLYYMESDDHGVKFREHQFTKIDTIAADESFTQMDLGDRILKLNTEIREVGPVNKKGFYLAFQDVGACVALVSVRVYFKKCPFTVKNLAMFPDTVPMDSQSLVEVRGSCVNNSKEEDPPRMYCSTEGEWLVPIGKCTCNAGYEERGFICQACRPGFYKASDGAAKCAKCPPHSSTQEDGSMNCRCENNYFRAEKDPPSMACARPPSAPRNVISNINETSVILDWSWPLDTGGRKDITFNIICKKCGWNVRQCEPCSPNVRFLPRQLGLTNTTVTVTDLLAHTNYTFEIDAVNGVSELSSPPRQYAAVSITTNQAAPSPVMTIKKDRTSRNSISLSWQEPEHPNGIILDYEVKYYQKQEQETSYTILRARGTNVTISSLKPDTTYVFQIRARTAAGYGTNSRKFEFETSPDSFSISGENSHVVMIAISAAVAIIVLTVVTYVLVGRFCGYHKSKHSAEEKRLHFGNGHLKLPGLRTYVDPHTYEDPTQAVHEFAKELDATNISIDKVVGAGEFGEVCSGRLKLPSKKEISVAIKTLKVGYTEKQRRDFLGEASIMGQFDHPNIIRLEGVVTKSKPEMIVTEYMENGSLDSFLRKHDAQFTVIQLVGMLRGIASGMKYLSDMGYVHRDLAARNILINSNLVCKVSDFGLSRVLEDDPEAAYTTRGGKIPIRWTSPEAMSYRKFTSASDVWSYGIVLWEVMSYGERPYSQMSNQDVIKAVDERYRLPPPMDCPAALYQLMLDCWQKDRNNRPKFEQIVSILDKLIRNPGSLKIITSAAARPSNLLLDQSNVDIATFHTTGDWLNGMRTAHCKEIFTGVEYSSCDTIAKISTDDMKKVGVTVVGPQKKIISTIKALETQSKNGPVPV

[3] = molecular target: Ephrin type-A receptor 5 (Rattus norvegicus, UniProt P54757); test: Displacement of biotinylated Fc-tagged ephrin-A1 from recombinant N/C-terminal 6-his tagged rat EphA5 (Ser 58 to Gln573 residues) preincubated for 1 hr followed by ephrin-A1-Fc addition and measured after 4 to 5 hrs by ELISA assay
Ephrin type-A receptor 5, sequence (P54757 whole entry): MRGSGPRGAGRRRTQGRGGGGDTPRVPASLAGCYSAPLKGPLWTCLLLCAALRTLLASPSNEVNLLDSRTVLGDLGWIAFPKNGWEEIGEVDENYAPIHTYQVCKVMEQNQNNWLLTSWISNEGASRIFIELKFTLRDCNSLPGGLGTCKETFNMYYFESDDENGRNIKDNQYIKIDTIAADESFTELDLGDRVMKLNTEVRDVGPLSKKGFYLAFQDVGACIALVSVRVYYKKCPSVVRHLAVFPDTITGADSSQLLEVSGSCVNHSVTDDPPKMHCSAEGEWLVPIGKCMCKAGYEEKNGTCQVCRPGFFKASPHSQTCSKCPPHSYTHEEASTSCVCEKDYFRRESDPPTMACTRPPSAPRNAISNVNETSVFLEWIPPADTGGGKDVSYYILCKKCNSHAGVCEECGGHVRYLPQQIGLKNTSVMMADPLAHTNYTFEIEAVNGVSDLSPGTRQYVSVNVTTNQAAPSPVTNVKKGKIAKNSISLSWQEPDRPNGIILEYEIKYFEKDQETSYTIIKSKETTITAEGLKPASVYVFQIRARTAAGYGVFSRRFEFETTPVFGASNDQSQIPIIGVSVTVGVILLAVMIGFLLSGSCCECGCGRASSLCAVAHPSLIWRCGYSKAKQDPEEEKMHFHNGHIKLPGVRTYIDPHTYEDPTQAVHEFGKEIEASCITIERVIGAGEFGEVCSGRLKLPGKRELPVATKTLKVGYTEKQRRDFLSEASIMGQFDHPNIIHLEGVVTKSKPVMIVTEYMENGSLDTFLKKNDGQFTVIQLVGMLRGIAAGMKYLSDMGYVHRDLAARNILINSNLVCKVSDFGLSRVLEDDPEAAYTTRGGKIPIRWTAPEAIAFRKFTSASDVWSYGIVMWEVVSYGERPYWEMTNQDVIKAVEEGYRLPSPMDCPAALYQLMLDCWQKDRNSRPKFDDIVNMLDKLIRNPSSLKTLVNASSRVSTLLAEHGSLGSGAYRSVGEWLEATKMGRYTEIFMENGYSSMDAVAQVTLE

[4] = molecular target: T3, Ephrin type-B receptor 2 (Mus musculus, UniProt P54763); test: Displacement of biotinylated Fc-tagged ephrin-B1 from recombinant N/C-terminal 6-his tagged mouse EphB2 (Val27 to Lys548 residues) preincubated for 1 hr followed by ephrin-B1-Fc addition and measured after 4 to 5 hrs by ELISA assay
T3 sequence (P54763 whole entry): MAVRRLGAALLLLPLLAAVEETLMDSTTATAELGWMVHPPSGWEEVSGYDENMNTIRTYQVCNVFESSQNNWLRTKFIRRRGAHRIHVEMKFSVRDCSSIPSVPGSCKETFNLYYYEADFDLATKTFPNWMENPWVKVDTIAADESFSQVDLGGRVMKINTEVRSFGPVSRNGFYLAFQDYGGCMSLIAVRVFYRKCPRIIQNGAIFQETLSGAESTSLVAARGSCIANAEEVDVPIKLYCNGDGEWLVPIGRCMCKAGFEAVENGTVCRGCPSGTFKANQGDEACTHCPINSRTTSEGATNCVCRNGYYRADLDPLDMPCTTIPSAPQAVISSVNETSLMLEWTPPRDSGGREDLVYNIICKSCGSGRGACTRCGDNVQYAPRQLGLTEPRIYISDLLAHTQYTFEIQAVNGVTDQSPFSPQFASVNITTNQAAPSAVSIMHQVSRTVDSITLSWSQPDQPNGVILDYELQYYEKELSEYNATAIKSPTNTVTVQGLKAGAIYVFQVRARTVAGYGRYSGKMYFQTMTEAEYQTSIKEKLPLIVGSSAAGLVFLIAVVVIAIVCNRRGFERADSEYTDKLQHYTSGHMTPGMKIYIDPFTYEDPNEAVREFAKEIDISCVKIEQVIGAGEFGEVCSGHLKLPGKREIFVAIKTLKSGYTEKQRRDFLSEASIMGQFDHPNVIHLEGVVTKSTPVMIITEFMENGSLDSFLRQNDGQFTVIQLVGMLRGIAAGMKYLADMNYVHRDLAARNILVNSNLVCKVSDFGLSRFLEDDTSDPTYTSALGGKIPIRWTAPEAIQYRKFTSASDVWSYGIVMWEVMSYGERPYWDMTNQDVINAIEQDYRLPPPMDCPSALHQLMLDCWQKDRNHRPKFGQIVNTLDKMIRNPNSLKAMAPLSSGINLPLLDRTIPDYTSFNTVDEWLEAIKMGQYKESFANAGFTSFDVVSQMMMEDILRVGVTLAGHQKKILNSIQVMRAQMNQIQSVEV

[5] = molecular target: T1, Ephrin type-A receptor 2; test: Displacement of biotinylated Fc-tagged ephrin-A1 from C/N-terminal 6-His tag mouse recombinant EphA2 (Ala22 to Ala535 residues) assessed as inhibition constant preincubated for 1 hr followed by ephrin-A1-Fc addition and measured after 4 to 5 hrs by ELISA assay
[6] = test system: U-251; test: Antiproliferative activity against human U-251 cells assessed as inhibition of cell growth at 30 uM measured after 72 hrs by MTT assay relative to control; type: functional; design: scale not given: the % may be the effect or the level left
[7] = test system: U-251; test: Antiproliferative activity against human U-251 cells assessed as inhibition of cell growth at 10 uM measured after 72 hrs by MTT assay; type: functional, cell-based
[8] = molecular target: Ephrin type-A receptor 2 (Homo sapiens) (UniProt P29317); test: Antagonist activity at EphA2 in human U-251 cells assessed as inhibition of EphA2 phosphorylation at 10 to 30 uM preincubated for 20 mins followed by ephrin-A1-Fc addition and measured after 10 mins by ELISA assay; type: cell-based; settings: filed as antagonist, dose 10-30 µM, time 30.0 min
Ephrin type-A receptor 2 (Homo sapiens), sequence (P29317 whole entry): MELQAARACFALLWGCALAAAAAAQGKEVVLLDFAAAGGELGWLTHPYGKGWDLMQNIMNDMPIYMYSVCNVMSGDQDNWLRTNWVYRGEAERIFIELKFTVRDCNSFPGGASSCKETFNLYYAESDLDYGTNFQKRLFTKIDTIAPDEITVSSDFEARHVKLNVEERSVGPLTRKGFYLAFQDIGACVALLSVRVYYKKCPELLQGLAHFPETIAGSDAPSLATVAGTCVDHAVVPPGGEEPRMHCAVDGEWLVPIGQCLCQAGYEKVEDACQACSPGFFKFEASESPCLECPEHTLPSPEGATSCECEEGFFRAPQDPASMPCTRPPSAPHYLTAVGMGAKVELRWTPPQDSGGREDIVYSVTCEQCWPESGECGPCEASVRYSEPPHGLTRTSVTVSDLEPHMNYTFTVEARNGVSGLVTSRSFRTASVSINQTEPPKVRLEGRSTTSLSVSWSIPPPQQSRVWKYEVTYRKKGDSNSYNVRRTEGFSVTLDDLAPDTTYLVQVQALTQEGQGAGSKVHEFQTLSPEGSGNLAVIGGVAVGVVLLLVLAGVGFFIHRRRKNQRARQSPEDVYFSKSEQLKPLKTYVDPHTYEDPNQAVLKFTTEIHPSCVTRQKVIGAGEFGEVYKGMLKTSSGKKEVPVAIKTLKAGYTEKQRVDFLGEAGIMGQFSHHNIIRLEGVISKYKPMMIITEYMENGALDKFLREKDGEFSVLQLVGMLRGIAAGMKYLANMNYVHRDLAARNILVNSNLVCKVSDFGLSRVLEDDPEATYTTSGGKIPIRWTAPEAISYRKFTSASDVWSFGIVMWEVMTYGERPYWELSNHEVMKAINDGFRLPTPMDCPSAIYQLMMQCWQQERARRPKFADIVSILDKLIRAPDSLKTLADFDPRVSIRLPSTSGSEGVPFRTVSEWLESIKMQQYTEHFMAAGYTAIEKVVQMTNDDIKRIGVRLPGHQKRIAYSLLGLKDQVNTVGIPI

[9] = test system: U-251; test: Effect on EphA2 protein level in human U-251 cells in presence of ephrin-A1 at 30 uM incubated for 4 hrs by ELISA assay; type: functional, cell-based
[10] = test system: U-251; test: Cytotoxicity against human U-251 cells at upto 30 uM measured after 2 hrs by CytTox 96 non-radioactive cytotoxicity assay; type: functional, cell-based
[11] = test system: LOUCY; test: Antiproliferative activity against human LOUCY cells harbouring EPHA2 knockout assessed as reduction in cell viability at 1 to 10 uM measured after 72 hrs by Celltiter-glo ATP based assay; type: functional; settings: dose 1-10 µM

`C[C@H](CCC(=O)N[C@H](CC(=O)O)Cc1cn(S(=O)(=O)c2ccccc2)c2ccccc12)[C@H]1CC[C@H]2[C@@H]3CC=C4C[C@@H](O)CC[C@]4(C)[C@H]3CC[C@]12C` was tested, and the IC50 [1] was 8.1 µM, the IC50 [2] was 11 µM and the IC50 [3] was 10 µM. The IC50 [4] was greater than 30 µM and the Ki [5] was 2.2 µM.

`C[C@H](CCC(=O)N[C@H](CC(=O)O)Cc1cn(S(=O)(=O)c2ccc(C(F)(F)F)cc2)c2ccccc12)[C@H]1CC[C@H]2[C@@H]3CC=C4C[C@@H](O)CC[C@]4(C)[C@H]3CC[C@]12C` was tested, and the IC50 [1] was 2.6 µM, the IC50 [2] was 7.6 µM and the IC50 [3] was 9.3 µM. It also gave an IC50 [4] greater than 30 µM, a Ki [5] of 2.8 µM and an Activity [6] of 100%. For the same compound, the Activity [7] was “Active”, the Activity [8] was “Active” and the Activity [9] was “inactive”. The Activity [10] was “inactive” and the Activity [11] was “inactive”.

`C[C@H](CCC(=O)N[C@H](CC(=O)O)Cc1c[nH]c2ccccc12)[C@H]1CC[C@H]2[C@@H]3CC=C4C[C@@H](O)CC[C@]4(C)[C@H]3CC[C@]12C` was tested, and the IC50 [2] was 4.1 µM and the IC50 [3] was 3 µM.
